Some test systems named below: SF-295 CNS; A549 NSCLC; K-562 leukemia; RPMI-8226 leukemia; SK-OV-3 ovarian; HL-60(TB) leukemia; ACHN renal; NCI-H226 lung; HCT-15 colon; SK-MEL-2 melanoma.
Holding throughout (assay): inhibition of tumour cell growth, NCI panel, 48 h

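Tested at 5 concentrations; 48 h exposure; 96-well plates; endpoints linearly interpolated, else capped at highest concentration. Abbreviation: GI50, concentration required for 50% inhibition of growth. Definition used: TGI = concentration required for complete inhibition of growth.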 Where only a bound is given, the exact number is not on record here.

Consider `CCOc1nc(-c2ccccc2)cc2c(O)c(-c3nnco3)[nH]c(=O)c12`, for which the GI50 is 4.28 µM in the test with SF-295 CNS; 4.55 µM with A549 NSCLC; 4.83 µM in the test with K-562 leukemia; 4.11 µM in the test with RPMI-8226 leukemia; 10 µM in the test with SK-OV-3 ovarian; 5.86 µM with HL-60(TB) leukemia. Moreover, the GI50 with ACHN renal is 5.02 µM; in the test on NCI-H226 lung it was 6.25 µM; in the test with HCT-15 colon, 3.66 µM; in the test with SK-MEL-2 melanoma it was 9.4 µM. The TGI was over 54.4 µM in the test on SF-295 CNS; over 100 µM in the test on A549 NSCLC; over 100 µM in the test with K-562 leukemia; over 100 µM with RPMI-8226 leukemia; 75.9 µM in the test with SK-OV-3 ovarian; over 100 µM in the test with HL-60(TB) leukemia. Further, the TGI in the test on ACHN renal was over 100 µM; in the test on NCI-H226 lung, over 100 µM; in the test with HCT-15 colon it was over 100 µM; with SK-MEL-2 melanoma it was over 46.9 µM.
